Columns and labels:
[1] = test system: CesA and RLK gene expression; conditions: isoxaben treatment, cited from earlier work
[2] = test system: Arabidopsis thaliana hypocotyl; assay: Dark-grown hypocotyl growth of SRF mutants on isoxaben media; assay type: in vivo
Experimental: Data is taken from three independent experiments. Data is from hypocotyl lengths relative to wild type plants grown on the same plate and relative to mutants grown on DMSO control media. Student's t-test: *=p<0.05.
Arabidopsis thaliana ecotype Columbia-0 (Col-0) was used. Before plating seeds were surface sterilized. First, the seeds were washed in 95% ethanol for 10 minutes, which was removed then the sterilization solution was added (20% bleach, 0.05% Tween-20 (Sigma) and double distilled water) and shaken for 10 minutes. The sterilization solution was removed and the seeds were washed three times with sterile distilled water. The seeds were cold treated for 4 days at 4° C. after plating them on the plates. Two different growth media were prepared for these experiments. For the control conditions: one-half strength Murashige and Skoog (MS) salts (Sigma), 0.5% sucrose (Sigma), 0.8% phyto agar (Research Products International Corp.), 1×B5 (1,000× in double distilled water: 10% myo-inositol, 0.1% nicotinic acid and 0.1% pyroxidine HCl) and 1× Thiamin (2,000× in double distilled water: 0.2% thiamin HCl). The other growth media contained either no sucrose but all other components remained the same. Plants used in Fourier Transform Infrared (FT-IR) Microspectroscopy and hypocotyl length, were only grown on sucrose-deprived media in the dark for four days after cold treatment. For selection of mutants from the Arabidopsis Biological Resource Center (ARBC), they were first plated onto MS media containing 50 μg/ml Kanamycin to select for insertions containing the NTPII (Kanamycin resistance) gene. In the case this resistance is lost the seeds were also sown onto regular MS media containing no antibiotic and then transferred to soil after one week. Plants were then grown on soil for 2-3 weeks after transfer from the plates and they were examined for status of the T-DNA insertion. Only homozygous T3 and T4 knockout mutants were used for the following experiments.
Isoxaben is a specific inhibitor of cellulose synthesis by affecting the function of the CesA proteins involved in primary cell wall synthesis, such as CesA3 and CesA6 (Scheible et al., 2001; Persson et al., 2007). Because SRF7 in particular is co-expressed with these same CesA genes the effects of isoxaben on SRF mutants was examined. […] The results which are in agreement with the dark-grown hypocotyl phenotypes of the srf mutants supports the hypothesis that SRF6 and SRF7 regulate CesA-mediated synthesis of the primary cell wall

In the case of `CCC(C)(CC)c1cc(NC(=O)c2c(OC)cccc2OC)on1` [isoxaben], the SRF6 gene expression ([1]; FIG. 10B) is given as “reduced gene expression”, the “primary cell wall CesA gene expression” value ([1]; FIG. 10D) is given as “reduces primary cell wall CesA gene expression” and the “secondary cell wall CesA gene expression” value ([1]; FIG. 10D) is given as “not the secondary cell wall CesAs”. The “response of hypocotyl length to isoxaben vs wild type” value (“response … vs wild type” below) ([2]; dominant negative of SRF7, 0.5 and 1 nM isoxaben) was “increased resistance”, the “response … vs wild type” value ([2]; dominant negative of SRF7, 5 and 10 nM isoxaben) was “increase sensitivity” and the “response … vs wild type” value ([2]; overexpression of SRF7 in srf7-1 mutant) was “wild type resistance”. For the same compound, the “response … vs wild type” value ([2]; srf6-1 and srf7-1 mutants (extracellular domain insertion), up to 10 μM, p<0.05) was “significantly more resistant”, the “response … vs wild type” value ([2]; srf6-2 and srf7-3 mutants) was “increased sensitivity” and the “response … vs wild type” value ([2]; srf7-2 mutant) was “no difference in isoxaben response”.
